This assay deals with HCT116 cells. The experiment in a line: Cell viability assay (CellTiter-Glo, 72 hours) in HCT116 human colorectal cancer cells. In kind it is cell-based. In a few lines: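 2,000 cells/well adhered overnight, then compound added by digital dispenser with DMSO normalized to 0.5%. Viability read after 72 h at 37 °C by ATP-based CellTiter-Glo luminescence. IC50 from ten-point curves baseline-corrected to vehicle, five-parameter asymmetric least-squares fit.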
On the technique in general: ATP-based viability assays read luminescence as a measure of living cells.

The mark [1] stands for this setting: Table 9, HCT116, 72 hours, read-out: Activity.
The mark [2] stands for this setting: Homo sapiens, HCT-116, Table 5, HCT116, 72 hours, read-out: Activity.
Where [3] appears, read: Table 8, analogs of scaffold drawing 43 defined by R^2, R^3, X/Y, W, read-out: Activity (IC50 class, cell viability assay).
Where [4] appears, read: Table 7, cell viability assay, CellTiter-Glo, 72 hours, scaffold drawing 42 with R^2, R^3, X/Y, Z, read-out: Activity.
Where [5] appears, read: Table 4, HCT116, 72 hours, read-out: Activity.
The mark [6] stands for this setting: Table 6, HCT116, 72 hours, read-out: Activity.
Where [7] appears, read: Table 5, HCT116, 72 hours, read-out: Activity.

SMILES strings stand for the structures. Read-outs that look alike come from different tables or passages of the source. Where only a bound is given, the exact number is not on record here.

In the case of `COCC1CC(C(=O)Nc2ccc3c(c2)C(C)(O)c2ccccc2C(=O)N3CC#CCl)C1` (stereo not shown) [Table 9: —CH2CCCl; 3-MeOCH2-cBu; CMeOH], the IC50 under setting [1] is < 0.5 µM.

For `CC#CCN1C(=O)c2ccccc2Sc2cc(Nc3nccc(C)c3F)ccc21` [10-(But-2-yn-1-yl)-7-((3-fluoro-4-methylpyridin-2-yl)amino)dibenzo[b,f][1,4]thiazepin-11 (10H)-one], the IC50 under setting [2] was < 0.5 µM.

With `CC#CCN1C(=O)c2ccc(Cl)cc2Sc2cc(NC(=O)C3CCCO3)cnc21` (stereo not shown), the IC50 under setting [3] is < 0.5 µM.

With `CON=C1CC2(C1)CC(C(=O)Nc1ccc3c(c1)Sc1ccccc1C(=O)N3CC#CCl)C2` (stereo not shown), the IC50 under setting [3] was < 0.5 µM.

As to `CC#CCN1C(=O)c2ccccc2Sc2cc(Nc3nnc(C#N)cc3C)ccc21` [6-((10-(But-2-yn-1-yl)-11-oxo-10,11-dihydrodibenzo[b,f][1,4]thiazepin-7-yl)amino)-5-methylpyridazine-3-carbonitrile], the IC50 under setting [2] was < 0.5 µM.

Regarding `COCCN1C(=O)c2ccccc2Sc2cc(NC(=O)C3CCCCCC3)ccc21` [—(CH2)2OMe; cHeptyl; CH/CH; S], the IC50 under setting [4] fell in the range of 1 to 5 µM.

As to `COCC1CC(C(=O)Nc2ccc3c(c2)C(C#N)c2ccccc2C(=O)N3CC#CC2CC2)C1` (stereo not shown) [Table 9: —CH2CCcPr; 3-MeOCH2-cBu; CHCN], the IC50 under setting [1] was < 0.5 µM.

`CC#CCN1C(=O)c2ccccc2Sc2cc(NC(=O)c3cccc(CCC#N)c3)ccc21` [—CH2CCMe; 3-(2′-CNEt)Ph; CH/CH; CH]: the IC50 under setting [3] was < 0.5 µM.

Turning to `COCCN1C(=O)c2ccccc2Sc2cc(NC(=O)c3ccc(CN)cc3)ccc21` [—(CH2)2OMe; 4-(NH2CH2)Ph; CH/CH; S], under setting [4], the IC50 lay within 1 to 5 µM.

In the case of `CC#CCN1C(=O)c2ccccc2Sc2cc(NC(=O)C3CC4(CC(=NO)C4)C3)cnc21` (stereo not shown), the IC50 under setting [3] was < 0.5 µM.

In the case of `C=CCN1C(=O)c2ccccc2Sc2cc(NC(=O)c3ccoc3)ccc21` [—CH2CH═CH2; furan-3-yl; CH/CH; S], under setting [4], the IC50 was < 0.5 µM.

Consider `CC#CCN1C(=O)c2ccccc2Sc2cc(NC(=O)Nc3ccc4scnc4c3)cnc21`, for which the IC50 (Table 3, HCT116, 72 hours, read-out: Activity) was < 0.5 µM.

For `CC#CCN1C(=O)c2ccc(Cl)cc2Sc2cc(NC(=O)[C@H]3C[C@H](O)C3)cnc21` [—CH2CCMe; trans-3-OH-cBu; CCl/CH; N], the IC50 under setting [3] is < 0.5 µM.

`CC#CCN1C(=O)c2cc(F)ccc2Sc2cc(NC(=O)C3CC4(CC(=NO)C4)C3)ccc21` (stereo not shown): the IC50 under setting [3] is < 0.5 µM.

As to `CC#CCN1C(=O)c2ccc(Cl)cc2Sc2cc(NC(=O)[C@H]3C[C@@H]3COC)cnc21` (relative stereo) [—CH2CCMe; trans-2-MeOCH2-cPr; CCl/CH; N], the IC50 under setting [3] was < 0.5 µM.

As to `CC#CCN1C(=O)c2ccccc2Sc2cc(NC(=S)Nc3ccc(OC)cc3)ccc21` [Table 4: —CH2CCMe; 4-MeOPh; CH], the IC50 under setting [5] was < 0.5 µM.

For `O=C(Nc1ccc2c(c1)Cc1ccccc1C(=O)N2CC#CC1CC1)C1CC2(CC(=NO)C2)C1` (stereo not shown), the IC50 under setting [1] is < 0.5 µM.

Regarding `COc1ccc(C(=O)Nc2ccc3c(c2)C(C)(O)c2ccccc2C(=O)N3CC#CCl)cc1` (stereo not shown) [Table 9: —CH2CCCl; 4-MeOPh; CMeOH], the IC50 under setting [1] was < 0.5 µM.

`CC#CCN1C(=O)c2ccccc2Sc2cc(NC(=S)Nc3ccc(OCF)cc3)cnc21` [Table 4: —CH2CCMe; 4-FH2COPh; N]: under setting [5], the IC50 is < 0.5 µM.

Take `CC#CCN1C(=O)c2ccc(Cl)cc2Sc2cc(NC(=O)C3CC4(CC(=O)C4)C3)ccc21`: the IC50 under setting [3] was < 0.5 µM.

On to `CC#CCN1C(=O)c2ccccc2Sc2cc(NC3CC4(CC(O)C4)C3)ccc21` (stereo not shown), for which, under setting [6], the IC50 is < 0.5 µM.

Take `O=C(Nc1cnc2c(c1)Sc1ccccc1C(=O)N2CC#CC1CC1)C1CC2(COC2)C1`: the IC50 under setting [3] is < 0.5 µM.

For the compound `CC#CCN1C(=O)c2ccccc2Sc2cc(Nc3ccc(C)nn3)ccc21` [10-(But-2-yn-1-yl)-7-((6-methylpyridazin-3-yl)amino)dibenzo[b,f][1,4]thiazepin-11 (10H)-one], under setting [2], the IC50 is < 0.5 µM.

Turning to `C#CCN1C(=O)c2ccccc2Sc2cc(Nc3nc(C)cnc3C)cnc21`, the IC50 under setting [7] is < 0.5 µM.

Turning to `CC#CCN1C(=O)c2ccccc2Sc2cc(Nc3cc(C)cnn3)cnc21`, under setting [7], the IC50 is < 0.5 µM.

Take `CC#CCN1C(=O)c2ccccc2Sc2cc(NC34CC(C3)C4)ccc21`: the IC50 under setting [6] is < 0.5 µM.

On to `COCCC(C)C(=O)Nc1cnc2c(c1)Sc1ccccc1C(=O)N2CC#CC1CC1` (stereo not shown) [—CH2CC^cPr; MeO(CH2)2CHMe-; CH/CH; N], for which the IC50 under setting [3] was < 0.5 µM.

As for `CO[C@H]1C[C@H](C(=O)Nc2ccc3c(c2)Sc2ccc(F)cc2C(=O)N3CC#CCF)C1` [—CH2CCCH2F; trans-3-MeOcBu; CH/CF; CH], the IC50 under setting [3] was < 0.5 µM.

As for `CC#CCN1C(=O)c2ccccc2Sc2cc(NC3CCCOC3)ccc21` (stereo not shown) [10-(But-2-yn-1-yl)-7-((tetrahydro-2H-pyran-3-yl)amino)dibenzo[b,f][1,4]thiazepin-11 (10H)-one], the IC50 (Homo sapiens, HCT-116, Table 6, HCT116, 72 hours, read-out: Activity) was < 0.5 µM.

Turning to `O=C(Nc1cnc2c(c1)Sc1ccccc1C(=O)N2CC#CC1CC1)[C@@H]1C[C@H]1CO` (relative stereo) [—CH2CC^cPr; trans-2-HOCH2-cPr; CH/CH; N], the IC50 under setting [3] was < 0.5 µM.

Regarding `COCCN1C(=O)c2ccccc2Sc2cc(NC(=O)c3ccc(F)cc3)ccc21` [—(CH2)2OMe; 4-FPh; CH/CH; S], under setting [4], the IC50 lay in the range of 1 to 5 µM.

Consider `CC#CCN1C(=O)c2ccccc2Sc2cc(NCCCOC)cnc21` [Table 6: —CH2CCMe; (CH2)3OMe; CH/N; S], for which the IC50 under setting [6] is < 0.5 µM.

With `O=C(Nc1cnc2c(c1)Sc1ccccc1C(=O)N2CC#CC(F)(F)F)C1CC2(CC(=NO)C2)C1` (stereo not shown), the IC50 under setting [3] is < 0.5 µM.

Consider `Cc1cnc(C)c(Nc2cnc3c(c2)Sc2ccccc2C(=O)N3CC#CCl)n1`, for which the IC50 under setting [7] was < 0.5 µM.

As to `CC#CCN1C(=O)c2ccc(Cl)cc2Sc2cc(NC(=O)C3COC3)ccc21` [—CH2CCMe; oxetan-3-yl; CCl/CH; CH], under setting [3], the IC50 is < 0.5 µM.

Regarding `CO[C@H]1C[C@@H](C(=O)Nc2ccc3c(c2)Sc2ccc(F)cc2C(=O)N3CC#CCF)C1` [—CH2CCCH2F; cis-3-MeOcBu; CH/CF; CH], the IC50 under setting [3] is < 0.5 µM.

Take `CC1c2ccccc2C(=O)N(CC#CC2CC2)c2ccc(NC(=O)CC3COC3)cc21` (stereo not shown): the IC50 under setting [1] is < 0.5 µM.

As for `CC#CCN1C(=O)c2ccc(F)cc2Sc2cc(NC(=O)C3CC4(CC(=NO)C4)C3)ccc21` (stereo not shown), the IC50 under setting [3] was < 0.5 µM.

With `C#Cc1cc(C(=O)Nc2ccc3c(c2)Sc2ccccc2C(=O)N3CCOC)ccn1` [—(CH2)2OMe; 2-(HCC)pyrid-4-yl; CH/CH; S], under setting [4], the IC50 was 1 to 5 µM.

`CCC/C=C/CN1C(=O)c2ccccc2Sc2cc(Nc3ncccc3C(F)(F)F)ccc21` [(E)-10-(Hex-2-en-1-yl)-7-((3-(trifluoromethyl)pyridin-2-yl)amino)dibenzo[b,f][1,4]thiazepin-11 (10H)-one]: the IC50 under setting [2] fell in the range of 0.5 to 1 µM.

Consider `CC#CCN1C(=O)c2ccccc2Sc2cc(NC(=O)C34CC(C(F)(F)F)(C3)C4)ccc21`, for which the IC50 under setting [3] lay in the range of 0.5 to 1 µM.

On to `CC#CCN1C(=O)c2ccccc2Sc2cc(NC(=O)C3CC(OC)C3)ccc21` (stereo not drawn) [—CH2CCMe; cis-3-MeOcBu; CH/CH; CH], for which the IC50 by setting is: under setting [3], < 0.5 µM; (cell viability assay, Table 10 analogs of scaffold drawing 45 defined by R2, R3, X/Y, W, read-out: Activity) < 0.5 µM.

With `CO[C@H]1C[C@H](C(=O)Nc2ccc3c(c2)C(C)(O)c2ccccc2C(=O)N3CC#CC2CC2)C1` (stereo partly shown), under setting [1], the IC50 is < 0.5 µM.

As for `CO[C@H]1C[C@@H](C(=O)Nc2ccc3c(c2)C(C)(O)c2ccccc2C(=O)N3CC#CCl)C1` (stereo partly drawn) [Table 9: —CH2CCCl; cis-3-MeOcBu; CMeOH], the IC50 under setting [1] is < 0.5 µM.

On to `Cc1ccnnc1Nc1ccc2c(c1)Sc1ccccc1C(=O)N2CC#CCl`, for which the IC50 under setting [7] is < 0.5 µM.

These data come from US20260097047A1, “Small molecule inhibitors of the ribosome biogenesis factor NVL2” (Board of Regents, The University of Texas System, priority 2023, published 2026).
